Data taken from patent US9999619B2, “Piperidin-4-yl azetidine derivatives as JAK1 inhibitors” (Incyte Corporation, priority 2010, dated 2018).
Counter-ions that a name gives are not always drawn.

What was measured:
Assay type in all cases: biochemical
[1] = molecular target: human JAK1 (a.a. 837-1142) (Homo sapiens, UniProt P23458); test: In vitro JAK kinase assay (HTRF, phosphorylation of a biotinylated peptide), JAK1; details: measured at 1 mM ATP
Summary of the method: (§1)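 N-terminal His-tagged catalytic domains, baculovirus-expressed in insect cells, phosphorylated a biotinylated peptide for 1 hr at room temperature. EDTA stop was followed by SA-APC and Eu-Py20 antibody for 40 minutes, with phosphopeptide read by HTRF.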

[2] = molecular target: human JAK1 (a.a. 837-1142); test: as above; details: ratio of JAK2 IC50 to JAK1 IC50, measured at 1 mM ATP
Summary of the method: as §1

Jak2 (a.a. 828-1132) = Jak2 (a.a. 828-1132) (Homo sapiens (Human), UniProt O60674); test: In vitro JAK kinase assay (HTRF, phosphorylation of a biotinylated peptide), JAK2; details: measured at 1 mM ATP
Summary of the method: as §1

Chain of Jak2 (a.a. 828-1132) (O60674 828-1132): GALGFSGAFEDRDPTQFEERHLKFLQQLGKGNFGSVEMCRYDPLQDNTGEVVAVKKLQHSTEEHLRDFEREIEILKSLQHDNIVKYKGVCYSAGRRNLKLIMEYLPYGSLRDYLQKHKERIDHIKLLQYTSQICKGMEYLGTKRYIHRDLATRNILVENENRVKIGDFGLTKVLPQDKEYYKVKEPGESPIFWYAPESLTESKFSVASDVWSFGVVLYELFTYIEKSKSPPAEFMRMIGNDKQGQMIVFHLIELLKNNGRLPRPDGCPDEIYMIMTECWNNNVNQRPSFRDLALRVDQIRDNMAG

Row | Compound | IC50 [1] [nM] | IC50 Ratio JAK2/JAK1 [2] | IC50 (Jak2 (a.a. 828-1132)) [nM]
1 | N#CCC1(n2cc(-c3ccnc4[nH]ccc34)cn2)CN(C2CCN(C(=O)Nc3ccccc3F)CC2)C1 [Example 309, 4-{3-(cyanomethyl)-3-[4-(1H-pyrrolo[2,3-b]pyridin-4-yl)-1H-pyrazol-1-yl]azetidin-1-yl}-N-(2-fluorophenyl)piperidine-1-carboxamide] | 5 to 20 | 5.3 | 10 to 50
2 | N#CCC1(n2cc(-c3c(F)cnc4[nH]ccc34)cn2)CN(C2CCN(C(=O)C3CCC(F)(F)CC3)CC2)C1 [Example 327, {1-{1-[(4,4-difluorocyclohexyl)carbonyl]piperidin-4-yl}-3-[4-(5-fluoro-1H-pyrrolo[2,3-b]pyridine-4-yl)-1H-pyrazol-1-yl]azetidin-3-yl}acetonitrile] | 5 to 20 | 4.1 | 50 to 100
3 | N#CCC1(n2cc(-c3ncnc4[nH]ccc34)cn2)CN(C2CCN(C(=O)c3ccc(F)c(Cl)c3)CC2)C1 [Example 34, {1-[1-(3-chloro-4-fluorobenzoyl)piperidin-4-yl]-3-[4-(7H-pyrrolo[2,3-d]pyrimidin-4-yl)-1H-pyrazol-1-yl]azetidin-3-yl}acetonitrile] | 5 to 20 | 6.0 | 10 to 50
4 | CN(C)c1ccc(S(=O)(=O)N2CCC(N3CC(CC#N)(n4cc(-c5ncnc6[nH]ccc56)cn4)C3)CC2)cc1C#N [Example 250, 5-[(4-{3-(cyanomethyl)-3-[4-(7H-pyrrolo[2,3-d]pyrimidin-4-yl)-1H-pyrazol-1-yl]azetidin-1-yl}piperidin-1-yl)sulfonyl]-2-(dimethylamino)benzonitrile] | ≤ 5 | 4.7 | 10 to 50
5 | N#CCC1(n2cc(-c3ncnc4[nH]ccc34)cn2)CN(C2CCN(C(=O)c3ccc(-c4ccc(C#N)c(F)c4)c(F)c3)CC2)C1 [Example 119, 4′-[(4-{3-(cyanomethyl)-3-[4-(7H-pyrrolo[2,3-d]pyrimidin-4-yl)-1H-pyrazol-1-yl]azetidin-1-yl}piperidin-1-yl)carbonyl]-2′,3-difluorobiphenyl-4-carbonitrile] | ≤ 5 | 14.0 | 10 to 50
6 | N#CCC1(n2cc(-c3ccnc4[nH]ccc34)cn2)CN(C2CCN(C(=O)c3cncc(C(F)(F)F)n3)CC2)C1 [Example 300, [3-[4-(1H-pyrrolo[2,3-b]pyridin-4-yl)-1H-pyrazol-1-yl]-1-(1-{[6-(trifluoromethyl)pyrazin-2-yl]carbonyl}piperidin-4-yl)azetidin-3-yl]acetonitrile] | 5 to 20 | 11.7 | > 100
7 | N#CCC1(n2cc(-c3c(F)cnc4[nH]ccc34)cn2)CN(C2CCN(C(=O)c3cnc(C(F)(F)F)cn3)CC2)C1 [Example 354, [3-[4-(5-Fluoro-1H-pyrrolo[2,3-b]pyridin-4-yl)-1H-pyrazol-1-yl]-1-(1-{[5-(trifluoromethyl)pyrazin-2-yl]carbonyl}piperidin-4-yl)azetidin-3-yl]acetonitrile] | 5 to 20 | 2.1 | 10 to 50
8 | Cc1ccc(NC(=O)N2CCC(N3CC(CC#N)(n4cc(-c5ncnc6[nH]ccc56)cn4)C3)CC2)c(C)n1 [Example 189, 4-{3-(cyanomethyl)-3-[4-(7H-pyrrolo[2,3-d]pyrimidin-4-yl)-1H-pyrazol-1-yl]azetidin-1-yl}-N-(2,6-dimethylpyridin-3-yl)piperidine-1-carboxamide] | 5 to 20 | 3.5 | 10 to 50
9 | N#CCC1(n2cc(-c3ncnc4[nH]ccc34)cn2)CN(C2CCN(C(=O)c3cccc(C#N)c3)CC2)C1 [Example 11, 3-[(4-{3-(cyanomethyl)-3-[4-(7H-pyrrolo[2,3-d]pyrimidin-4-yl)-1H-pyrazol-1-yl]azetidin-1-yl}piperidin-1-yl)carbonyl]benzonitrile] | 5 to 20 | 7.2 | 10 to 50
10 | N#CCC1(n2cc(-c3ncnc4[nH]ccc34)cn2)CN(C2CCN(C(=O)Nc3nccs3)CC2)C1 [Example 190, 4-{3-(cyanomethyl)-3-[4-(7H-pyrrolo[2,3-d]pyrimidin-4-yl)-1H-pyrazol-1-yl]azetidin-1-yl}-N-1,3-thiazol-2-ylpiperidine-1-carboxamide] | 20 to 30 | 2.1 | 50 to 100
11 | N#CCC1(n2cc(-c3ncnc4[nH]ccc34)cn2)CN(C2CCN(C(=O)c3ccc(-c4ccc5cccnc5c4)c(F)c3)CC2)C1 [Example 134, {1-[1-(3-fluoro-4-quinolin-7-ylbenzoyl)piperidin-4-yl]-3-[4-(7H-pyrrolo[2,3-d]pyrimidin-4-yl)-1H-pyrazol-1-yl]azetidin-3-yl}acetonitrile] | ≤ 5 | 6.7 | 10 to 50
12 | N#CCC1(n2ccc(-c3ncnc4[nH]ccc34)c2)CN(C2CCN(C(=O)c3cc(OC(F)(F)F)ccc3F)CC2)C1 [Example 269, {1-{1-[2-fluoro-5-(trifluoromethoxy)benzoyl]piperidin-4-yl}-3-[3-(7H-pyrrolo[2,3-d]pyrimidin-4-yl)-1H-pyrrol-1-yl]azetidin-3-yl}acetonitrile] | ≤ 5 | 5.0 | 10 to 50
13 | N#CCC1(n2cc(-c3ncnc4[nH]ccc34)cn2)CN(C2CCN(Cc3cc(Br)nc(Br)c3)CC2)C1 [Example 225, {1-{1-[(2,6-dibromopyridin-4-yl)methyl]piperidin-4-yl}-3-[4-(7H-pyrrolo[2,3-d]pyrimidin-4-yl)-1H-pyrazol-1-yl]azetidin-3-yl}acetonitrile] | ≤ 5 | 3.8 | 10 to 50

Other lines, results leading:

Row | IC50 [1] [nM] | IC50 Ratio JAK2/JAK1 [2] | IC50 (Jak2 (a.a. 828-1132)) [nM] | Compound
14 | ≤ 5 | 3.8 | 10 to 50 | CS(=O)(=O)N1CCC(N2CC(CC#N)(n3cc(-c4c(C#N)cnc5[nH]ccc45)cn3)C2)CC1 [Example 357, 4-(1-{3-(Cyanomethyl)-1-[1-(methylsulfonyl)piperidin-4-yl]azetidin-3-yl}-1H-pyrazol-4-yl)-1H-pyrrolo[2,3-b]pyridine-5-carbonitrile]
15 | ≤ 5 | 50 | 10 to 50 | CCN(C)Cc1cc(C(=O)N2CCC(N3CC(CC#N)(n4cc(-c5ncnc6[nH]ccc56)cn4)C3)CC2)nc(C(F)(F)F)n1 [Example 374, {1-(1-{[6-{[ethyl(methyl)amino]methyl}-2-(trifluoromethyl)pyrimidin-4-yl]carbonyl}piperidin-4-yl)-3-[4-(7H-pyrrolo[2,3-d]pyrimidin-4-yl)-1H-pyrazol-1-yl]azetidin-3-yl}acetonitrile]
16 | ≤ 5 | 6.3 | 10 to 50 | N#CCC1(n2cc(-c3ncnc4[nH]ccc34)cn2)CN(C2CCN(C(=O)c3ccc(-c4ccc(C#N)cc4)cc3)CC2)C1 [Example 126, 4′-[(4-{3-(cyanomethyl)-3-[4-(7H-pyrrolo[2,3-d]pyrimidin-4-yl)-1H-pyrazol-1-yl]azetidin-1-yl}piperidin-1-yl)carbonyl]biphenyl-4-carbonitrile]
17 | ≤ 5 | 65.3 | 50 to 100 | CNCc1cc(C(=O)N2CCC(N3CC(CC#N)(n4cc(-c5ncnc6[nH]ccc56)cn4)C3)CC2)nc(C(F)(F)F)n1 [Example 371, {1-(1-{[6-[(methylamino)methyl]-2-(trifluoromethyl)pyrimidin-4-yl]carbonyl}piperidin-4-yl)-3-[4-(7H-pyrrolo[2,3-d]pyrimidin-4-yl)-1H-pyrazol-1-yl]azetidin-3-yl}acetonitrile trifluoroacetate salt]
18 | ≤ 5 | 3.2 | 10 to 50 | N#CCC1(n2cc(-c3ncnc4[nH]ccc34)cn2)CN(C2CCN(C(=O)c3ccccc3)CC2)C1 [Example 9, {1-(1-benzoylpiperidin-4-yl)-3-[4-(7H-pyrrolo[2,3-d]pyrimidin-4-yl)-1H-pyrazol-1-yl]azetidin-3-yl}acetonitrile]
19 | ≤ 5 | 4.8 | 10 to 50 | COC(=O)c1ccc(NC(=O)N2CCC(N3CC(CC#N)(n4cc(-c5ncnc6[nH]ccc56)cn4)C3)CC2)c(F)c1 [Example 208, methyl 4-{[(4-{3-(cyanomethyl)-3-[4-(7H-pyrrolo[2,3-d]pyrimidin-4-yl)-1H-pyrazol-1-yl]azetidin-1-yl}piperidin-1-yl)carbonyl]amino}-3-fluorobenzoate]
20 | ≤ 5 | 43.8 | > 100 | CN(C)Cc1cc(C#N)cc(C(=O)N2CCC(N3CC(CC#N)(n4cc(-c5ncnc6[nH]ccc56)cn4)C3)CC2)c1 [Example 369, 3-[(4-{3-(cyanomethyl)-3-[4-(7H-pyrrolo[2,3-d]pyrimidin-4-yl)-1H-pyrazol-1-yl]azetidin-1-yl}piperidin-1-yl)carbonyl]-5-[(dimethylamino)methyl]benzonitrile]
21 | ≤ 5 | 12.0 | 10 to 50 | N#CCC1(n2cc(-c3ncnc4[nH]ccc34)cn2)CN(C2CCN(C(=O)Nc3ccccc3OC(F)(F)F)CC2)C1 [Example 158, 4-{3-(cyanomethyl)-3-[4-(7H-pyrrolo[2,3-d]pyrimidin-4-yl)-1H-pyrazol-1-yl]azetidin-1-yl}-N-[2-(trifluoromethoxy)phenyl]piperidine-1-carboxamide]
22 | ≤ 5 | 4.2 | ≤ 10 | N#CCC1(n2cc(-c3ncnc4[nH]ccc34)cn2)CN(C2CCN(C(=O)c3cccc(Br)c3)CC2)C1 [Example 20, {1-[1-(3-bromobenzoyl)piperidin-4-yl]-3-[4-(7H-pyrrolo[2,3-d]pyrimidin-4-yl)-1H-pyrazol-1-yl]azetidin-3-yl}acetonitrile]
